# Experimental data reported in patent US4925797A, “Process for the decomposition of acrylamide” (Imperial Chemical Industries plc, priority 1986, dated 1990).
# Tested on: Methylophilus methylotrophus amidase (acylamide amido hydrolase E.C. No. 3-5-1-4)
# Assay: Methylophilus methylotrophus amidase properties (Km)
# Assay type: biochemical
# Details: amidase induced in Methylophilus methylotrophus; substrate as named
row,SMILES,Km [mM]
1,CC(N)=O [Acetamide],0.2
2,C=CC(N)=O [Acrylamide],10
